Results from patent publication US8268861B2, “P2X7R antagonists and their use” (Affectis Pharmaceuticals AG, priority 2009, dated 2012).

Assays:
human P2X7R = target: T1, human P2X7R (Homo sapiens, UniProt Q99572); assay: Inhibition of Bz-ATP-stimulated calcium influx in Hek293 cells stably transfected with human P2X7R (Fluo-4-AM); format: cell-based; details: Hek293 cells expressing human P2X7R, 100 μM Bz-ATP, 15 minute incubation with test compound
T1 construct: expressed in transfected cells
T1 sequence (Q99572 1-595): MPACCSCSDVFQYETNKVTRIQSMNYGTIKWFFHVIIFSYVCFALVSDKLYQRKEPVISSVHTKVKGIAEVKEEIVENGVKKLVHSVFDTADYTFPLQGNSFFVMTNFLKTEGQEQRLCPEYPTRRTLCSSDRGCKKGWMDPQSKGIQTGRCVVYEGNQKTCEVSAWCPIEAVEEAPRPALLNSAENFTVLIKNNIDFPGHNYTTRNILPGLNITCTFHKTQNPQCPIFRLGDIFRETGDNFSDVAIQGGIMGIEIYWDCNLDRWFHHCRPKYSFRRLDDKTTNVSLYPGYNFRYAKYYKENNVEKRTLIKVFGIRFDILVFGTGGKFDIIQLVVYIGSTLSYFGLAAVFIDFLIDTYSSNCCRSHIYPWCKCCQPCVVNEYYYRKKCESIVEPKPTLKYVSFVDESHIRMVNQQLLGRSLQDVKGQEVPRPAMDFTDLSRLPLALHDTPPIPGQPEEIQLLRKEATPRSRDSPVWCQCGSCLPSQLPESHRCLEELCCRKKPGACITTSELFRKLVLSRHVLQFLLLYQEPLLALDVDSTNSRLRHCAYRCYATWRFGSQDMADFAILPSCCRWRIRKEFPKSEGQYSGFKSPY
Method: Inhibition of P2X7R activity by the compounds of the present invention is assessed by measuring calcium influx in Hek293 cells (ECACC No. 85120602) which have been stably transfected with a cDNA for the human P2X7R.
Hek293 cells expressing P2X7R were generated by lipofectamine transfection of the human P2X7R cDNA (Genbank accession number BC011913) under the control of the human cytomegalovirus immediate-early (CMV) promoter and inserted into the pcDNA3.1 vector (Invitrogen). […]
Inhibition of Bz-ATP-stimulated P2X7R by test compounds was monitored by measuring changes in calcium influx using the Fluo-4-AM fluorescent dye according to the manufacturer's recommendations (Molecular Devices Corporation, U.S.A.). […] After a 15 minute incubation, 100 μM Bz-ATP was added and fluorescence was measured in a FlexStation II (Molecular Devices, U.S.A.) according to the following parameters: 485 nm Excitation Wavelength; 525 nm Emission Wavelength; 515 nm Emission Cut-off; 100 μl Pipette Height; 25 μl Transfer Volume; 5 fold Compound Concentration; 3 rate Addition Speed. […] The fluorescence data were processed using a lag time of 15 seconds, recording 45 seconds, zero baseline calibrated using 2 points, and % baseline multiplier set at 3. […]

IL-1 beta secretion = IL-1 beta secretion by LPS/BzATP-stimulated isolated human monocytes (macrophages), ELISA; format: cell-based; details: 1 μg/mL LPS 2 hours, 100 μM BzATP 30 minutes, compound added 5 minutes before BzATP, FIG. 1, p<0.01
Method: The effects of compounds of the present invention on IL-1 beta secretion is assessed using isolated human monocytes.
Briefly, human monocytes were purified from human blood by Ficoll-Paque from Buffy coats as follows. The Buffy coat is a greyish white layer of white blood cells and platelets that accumulates on the surface of sedimented erythrocytes when blood is allowed to stand or is centrifuged. Each Buffy coat (one per donor) was diluted with PBS and 20 ml added on top of 15 ml of Ficoll-Paque. The gradient was centrifuged at 900 g for 20 min at room temperature. […] At day 5, the cells were counted, resuspended in RPMI 1640 supplemented with 5% human serum at a concentration of 1×10^6/ml and plated onto a 24 wells plate (5×10^5 cells/well). […]
The day of experiment, the macrophages were pre-stimulated for 2 hours with 1 μg/mL LPS at 37° C. […] After incubation, the supernatants were collected by centrifugation (250 g for 5 minutes) and IL-1β secretion was measured by using the human IL-1 beta/IL-1F2 Quantikine ELISA Kit following manufacturer's instructions. […] The O.D. at 450 nm was measured for each data points and the IL-1β concentration calculated based on a standard curve. The […] concentration was further calculated to have a concentration in pg/mL/10E+6 cells, together with its standard deviation.

With O=C(CC1CCCCCC1)Nc1cn(CCO)c2cccc(Cl)c12 [Example 2, N-(4-chloro-1-(2-hydroxyethyl)-1H-indol-3-yl)-2-cycloheptylacetamide] the IC50 (human P2X7R) was ~3.8 nM and the IL-1beta secretion (IL-1 beta secretion) was “reduced IL-1beta secretion”.
